Source: US8802895B2, “Amide derivatives of benzene-sulfonanilide, pharmaceutical composition thereof and method for cancer treatment using the same” (Cleveland State University, priority 2010, dated 2014)

What was measured:
Type in all cases: cell-based
PC-3 = assay: NCIDTP 60 cancer cell lines screening, Prostate Cancer panel; conditions: PC-3
cells = assay: Primary mechanism study: cell viability with compound #10 and 2-APB (FIG. 10); conditions: with and without 2-APB; cell viability after 48 hours
Description: For the experiment, 2-APB was first added. […] The control cells were treated with same amount of DMSO to carry the drugs. The cell viability was evaluated after 48 hours.

HT29 = assay: NCIDTP 60 cancer cell lines screening, Colon Cancer panel
SK-MEL-2 = assay: NCIDTP 60 cancer cell lines screening, Melanoma panel
HL-60(TB) = assay: NCIDTP 60 cancer cell lines screening, Leukemia panel
SK-MEL-28 = assay: NCIDTP 60 cancer cell lines screening, Melanoma panel
NCI-H322M = assay: NCIDTP 60 cancer cell lines screening, Non-Small Cell Lung Cancer panel
NCI-H23 = assay: as above
ACHN = assay: NCIDTP 60 cancer cell lines screening, Renal Cancer panel
MDA-MB-231/ATCC = assay: NCIDTP 60 cancer cell lines screening, Breast Cancer panel

SMILES: Cc1ccc(C)c(COc2cc(NC(=O)c3ccc4c(c3)OCO4)ccc2N(C)S(C)(=O)=O)c1 [Compound #10, Benzo[1,3]dioxole-5-carboxylic acid [3-(2,5-dimethyl-benzyloxy)-4-(methanesulfonyl-methyl-amino)-phenyl]-amide]
- Percent Growth (PC-3; Log10 Concentration −7.0 Molar): 41%
- Percent Growth (PC-3; Log10 Concentration −8.0 Molar): 92%
- cell death / cell viability, relation with calcium signal (cells): induces cell death that is at least partially related with calcium signal in the cells
- TGI (HT29; HT29): 4.19E−7 Molar
- Percent Growth (HT29; HT29, Log10 Concentration −4.0 Molar): −48%
- Percent Growth (HT29; HT29, Log10 Concentration −5.0 Molar): −48%
- Percent Growth (HT29; HT29, Log10 Concentration −6.0 Molar): −26%
- Percent Growth (HT29; HT29, Log10 Concentration −7.0 Molar): 44%
- Percent Growth (HT29; HT29, Log10 Concentration −8.0 Molar): 101%
- CC50 (HT29; Homo sapiens, HT-29, read-out: LC50): > 100 µM
- GI50 (HT29; Homo sapiens, HT-29, HT29): 77.2 nM
- inhibition of cancer cell growth (NCI screening results, in words) (HT29; many types of cancer cell including HT29 colon cancer cells): very potent to inhibit the growth
- GI50 (SK-MEL-2; Homo sapiens, SK-MEL-2): 89.7 nM
- CC50 (SK-MEL-2; Homo sapiens, SK-MEL-2, read-out: LC50): > 100 µM
- TGI (SK-MEL-2; SK-MEL-2): 6.16E−7 Molar
- Percent Growth (SK-MEL-2; SK-MEL-2, Log10 Concentration −4.0 Molar): −18%
- Percent Growth (SK-MEL-2; SK-MEL-2, Log10 Concentration −5.0 Molar): −12%
- Percent Growth (SK-MEL-2; SK-MEL-2, Log10 Concentration −6.0 Molar): −13%
- Percent Growth (SK-MEL-2; SK-MEL-2, Log10 Concentration −7.0 Molar): 48%
- Percent Growth (SK-MEL-2; SK-MEL-2, Log10 Concentration −8.0 Molar): 99%
- TGI (HL-60(TB); HL-60(TB)): 9.67E−8 Molar
- Percent Growth (HL-60(TB); HL-60(TB), Log10 Concentration −4.0 Molar): −20%
- Percent Growth (HL-60(TB); HL-60(TB), Log10 Concentration −5.0 Molar): −20%
- Percent Growth (HL-60(TB); HL-60(TB), Log10 Concentration −6.0 Molar): −12%
- Percent Growth (HL-60(TB); HL-60(TB), Log10 Concentration −7.0 Molar): −1%
- Percent Growth (HL-60(TB); HL-60(TB), Log10 Concentration −8.0 Molar): 89%
- CC50 (HL-60(TB); Homo sapiens, HL-60, read-out: LC50): > 100 µM
- GI50 (HL-60(TB); Homo sapiens, HL-60(TB)): 26.9 nM
- GI50 (SK-MEL-28; Homo sapiens, SK-MEL-28): 692 nM
- CC50 (SK-MEL-28; Homo sapiens, SK-MEL-28, read-out: LC50): > 100 µM
- TGI (SK-MEL-28; SK-MEL-28): >1.00E−4 Molar
- Percent Growth (SK-MEL-28; SK-MEL-28, Log10 Concentration −4.0 Molar): 50%
- Percent Growth (SK-MEL-28; SK-MEL-28, Log10 Concentration −5.0 Molar): 49%
- Percent Growth (SK-MEL-28; SK-MEL-28, Log10 Concentration −6.0 Molar): 44%
- Percent Growth (SK-MEL-28; SK-MEL-28, Log10 Concentration −7.0 Molar): 83%
- Percent Growth (SK-MEL-28; SK-MEL-28, Log10 Concentration −8.0 Molar): 91%
- TGI (NCI-H322M): >1.00E−4 Molar
- GI50 (NCI-H322M; Homo sapiens): 468 nM
- CC50 (NCI-H322M; Homo sapiens, read-out: LC50): > 100 µM
- Percent Growth (NCI-H322M; Log10 Concentration −4.0 Molar): 28%
- Percent Growth (NCI-H322M; Log10 Concentration −5.0 Molar): 26%
- Percent Growth (NCI-H322M; Log10 Concentration −6.0 Molar): 30%
- Percent Growth (NCI-H322M; Log10 Concentration −7.0 Molar): 91%
- Percent Growth (NCI-H322M; Log10 Concentration −8.0 Molar): 94%
- GI50 (NCI-H23; Homo sapiens, NCI-H23): 162 nM
- CC50 (NCI-H23; Homo sapiens, NCI-H23, read-out: LC50): > 100 µM
- TGI (NCI-H23; NCI-H23): >1.00E−4 Molar
- Percent Growth (NCI-H23; NCI-H23, Log10 Concentration −4.0 Molar): 2%
- Percent Growth (NCI-H23; NCI-H23, Log10 Concentration −5.0 Molar): 3%
- Percent Growth (NCI-H23; NCI-H23, Log10 Concentration −6.0 Molar): 5%
- Percent Growth (NCI-H23; NCI-H23, Log10 Concentration −7.0 Molar): 62%
- Percent Growth (NCI-H23; NCI-H23, Log10 Concentration −8.0 Molar): 97%
- TGI (ACHN): >1.00E−4 Molar
- GI50 (ACHN; Homo sapiens): 687 nM
- CC50 (ACHN; Homo sapiens, read-out: LC50): > 100 µM
- Percent Growth (ACHN; Log10 Concentration −4.0 Molar): 23%
- Percent Growth (ACHN; Log10 Concentration −5.0 Molar): 26%
- Percent Growth (ACHN; Log10 Concentration −6.0 Molar): 45%
- Percent Growth (ACHN; Log10 Concentration −7.0 Molar): 75%
- Percent Growth (ACHN; Log10 Concentration −8.0 Molar): 95%
- CC50 (MDA-MB-231/ATCC; Homo sapiens, MDA-MB-231, read-out: LC50): > 100 µM
- GI50 (MDA-MB-231/ATCC; Homo sapiens, MDA-MB-231/ATCC): 256 nM
- TGI (MDA-MB-231/ATCC; MDA-MB-231/ATCC): 9.26E−7 Molar
- Percent Growth (MDA-MB-231/ATCC; MDA-MB-231/ATCC, Log10 Concentration −4.0 Molar): −7%
- Percent Growth (MDA-MB-231/ATCC; MDA-MB-231/ATCC, Log10 Concentration −5.0 Molar): −17%
- Percent Growth (MDA-MB-231/ATCC; MDA-MB-231/ATCC, Log10 Concentration −6.0 Molar): −3%
- Percent Growth (MDA-MB-231/ATCC; MDA-MB-231/ATCC, Log10 Concentration −7.0 Molar): 87%
- Percent Growth (MDA-MB-231/ATCC; MDA-MB-231/ATCC, Log10 Concentration −8.0 Molar): 90%
